Experimental data taken from article PMC6378217, “The lysyl oxidase like 2/3 enzymatic inhibitor, PXS‐5153A, reduces crosslinks and ameliorates fibrosis” (Journal of Cellular and Molecular Medicine, 2018).

Legend:
Adrenergic α2A = Adrenergic α2A (Homo sapiens, UniProt P08913); test: Eurofins Hit Profiling Screen; type: binding; conditions: 10 μmol/L
GABAA, Muscimol, Central = test: Eurofins Hit Profiling Screen; type: binding; conditions: 10 μmol/L
Recombinant mouse LOXL2 = molecular target: T1, Recombinant mouse LOXL2 (Mus musculus, UniProt P58022); test: Amplex-Red fluorometric enzymatic activity assay, recombinant mouse LOXL2; type: biochemical; conditions: 30 minute pre-incubation; average of at least three experiments
T1 construct: purchased R&D Systems
Method: The measurement of the enzymatic activity of all lysyl oxidase family members was based on the detection of hydrogen peroxide with an Amplex‐Red oxidation assay, as described in Zhou et al26 Recombinant human semicarbazide sensitive amine oxidase (SSAO/VAP1), diamine oxidase (DAO) and monoamine oxidases A and B (MAO‐A and MAO‐B) assays were performed as previously described.27 For detailed enzymatic procedures, see supporting information.
The measurement of the enzymatic activity of all lysyl oxidase family members was based on the detection of hydrogen peroxide with an Amplex-Red oxidation assay, as described in Zhou et al.[1]; miniaturised in 384 well format, with the appropriate combination of substrate and assay buffer for each individual enzyme. After a 30 minute pre-incubation of the enzyme at 37 °C with the test compound (or with different incubation times for the time-dependency assay), one volume of reaction mixture containing 120 μM Amplex Red (AR) (Life Technologies), 1.5 U/mL horseradish peroxidase (HRP) (Sigma-Aldrich) and the specific substrate was added to each sample. The relative fluorescence units (RFU) were then measured every 2.5 minutes for 30 minutes at 37°C, excitation 565 nm and emission 590, on a BMG Clariostar Microplate Reader. […]

Adrenergic β1 = Adrenergic β1 (Homo sapiens, UniProt P08588); test: Eurofins Hit Profiling Screen; type: binding; conditions: 10 μmol/L
Adrenergic β2 = Adrenergic β2 (Homo sapiens, UniProt P07550); test: Eurofins Hit Profiling Screen; type: binding; conditions: 10 μmol/L
[1] = tested on: GABAA, Flunitrazepam, Central; test: Eurofins Hit Profiling Screen; type: binding; conditions: 10 μmol/L
[2] = tested on: Calcium Channel L-Type, Dihydropyridine; test: Eurofins Hit Profiling Screen; type: binding, rat; conditions: 10 μmol/L
[3] = tested on: CCl4-induced liver fibrosis; test: CCl4-induced liver fibrosis; type: in vivo, Sprague Dawley rats
Method: Pellet then underwent acid hydrolysis in 6 mol/L HCl at 100°C for 24 hours. Hydroxyproline and crosslinks were extracted from the hydrolysate using an automated solid phase extraction system (Gilson […] system). After extraction and drying, hydroxyproline and crosslinks were analysed by UHPLC-ESI-MS/MS on a Thermo Dionex UHPLC and TSQ Endura triple quad mass spectrometer. Total protein was quantified in the samples using a commercially available kit (QuickZyme Biosciences, Leiden, The Netherlands). For detailed procedures, see supporting information. The study was performed by Pharmalegacy with approval from local ethics committee. […] Animals were killed 48 hours after the last CCl4 administration. […] Alanine aminotransferase (ALT) and aspartate aminotransferase (AST) levels were assessed in the plasma. One lobe of the liver tissue was fixed in 10% formalin, stained for Sirius red and the percentage coverage area was measured. The remainder of the liver was snap frozen and used for protein, hydroxyproline and crosslink analysis.

Imidazoline I2, Central = test: Eurofins Hit Profiling Screen; type: binding; conditions: 10 μmol/L
Potassium Channel [KATP] = Potassium Channel [KATP] (Cricetus cricetus, UniProt Q09427); test: Eurofins Hit Profiling Screen; type: binding; conditions: 10 μmol/L
Method: PXS‐5153A was tested at Eurofins Cerep Panlabs Taiwan, Ltd in the “Hit Profiling Screen”, which tested 30 different targets.
Eurofins Hit Profiling Screen, was performed to evaluate the off -target profile of PXS-5153A. Biochemical assay results are presented as the percent inhibition of specific binding or activity.

T1 sequence (P58022 26-776): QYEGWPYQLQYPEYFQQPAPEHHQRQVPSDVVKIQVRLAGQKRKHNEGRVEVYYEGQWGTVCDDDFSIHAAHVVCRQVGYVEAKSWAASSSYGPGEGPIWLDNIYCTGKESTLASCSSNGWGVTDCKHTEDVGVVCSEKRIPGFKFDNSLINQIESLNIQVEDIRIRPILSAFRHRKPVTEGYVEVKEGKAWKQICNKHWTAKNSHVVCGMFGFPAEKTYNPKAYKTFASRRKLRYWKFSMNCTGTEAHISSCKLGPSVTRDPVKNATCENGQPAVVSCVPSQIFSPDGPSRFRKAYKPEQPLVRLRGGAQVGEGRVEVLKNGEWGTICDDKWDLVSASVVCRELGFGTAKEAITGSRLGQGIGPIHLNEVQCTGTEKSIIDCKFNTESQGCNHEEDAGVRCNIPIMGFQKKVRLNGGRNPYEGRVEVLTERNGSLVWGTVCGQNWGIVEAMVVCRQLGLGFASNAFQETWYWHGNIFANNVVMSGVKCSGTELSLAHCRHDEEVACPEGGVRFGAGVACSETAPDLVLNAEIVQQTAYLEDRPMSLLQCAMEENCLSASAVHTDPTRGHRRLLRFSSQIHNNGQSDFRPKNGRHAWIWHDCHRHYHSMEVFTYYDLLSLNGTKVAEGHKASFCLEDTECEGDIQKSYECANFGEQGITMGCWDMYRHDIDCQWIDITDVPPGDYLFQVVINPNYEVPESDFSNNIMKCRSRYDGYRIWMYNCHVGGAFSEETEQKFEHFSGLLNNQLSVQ
Chain of Adrenergic β1 (P08588 whole entry): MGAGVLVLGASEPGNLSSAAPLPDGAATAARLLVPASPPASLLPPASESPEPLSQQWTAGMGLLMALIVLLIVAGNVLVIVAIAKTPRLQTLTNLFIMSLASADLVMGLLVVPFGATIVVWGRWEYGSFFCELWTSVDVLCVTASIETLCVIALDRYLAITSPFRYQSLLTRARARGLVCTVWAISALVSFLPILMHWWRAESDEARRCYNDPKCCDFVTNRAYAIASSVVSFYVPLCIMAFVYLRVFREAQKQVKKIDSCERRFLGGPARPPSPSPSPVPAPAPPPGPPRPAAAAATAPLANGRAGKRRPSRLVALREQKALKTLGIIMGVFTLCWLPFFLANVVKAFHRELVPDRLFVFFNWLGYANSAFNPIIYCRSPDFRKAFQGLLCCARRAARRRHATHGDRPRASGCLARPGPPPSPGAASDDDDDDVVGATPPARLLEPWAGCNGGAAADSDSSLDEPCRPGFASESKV
Chain of Potassium Channel [KATP] (Q09427 whole entry): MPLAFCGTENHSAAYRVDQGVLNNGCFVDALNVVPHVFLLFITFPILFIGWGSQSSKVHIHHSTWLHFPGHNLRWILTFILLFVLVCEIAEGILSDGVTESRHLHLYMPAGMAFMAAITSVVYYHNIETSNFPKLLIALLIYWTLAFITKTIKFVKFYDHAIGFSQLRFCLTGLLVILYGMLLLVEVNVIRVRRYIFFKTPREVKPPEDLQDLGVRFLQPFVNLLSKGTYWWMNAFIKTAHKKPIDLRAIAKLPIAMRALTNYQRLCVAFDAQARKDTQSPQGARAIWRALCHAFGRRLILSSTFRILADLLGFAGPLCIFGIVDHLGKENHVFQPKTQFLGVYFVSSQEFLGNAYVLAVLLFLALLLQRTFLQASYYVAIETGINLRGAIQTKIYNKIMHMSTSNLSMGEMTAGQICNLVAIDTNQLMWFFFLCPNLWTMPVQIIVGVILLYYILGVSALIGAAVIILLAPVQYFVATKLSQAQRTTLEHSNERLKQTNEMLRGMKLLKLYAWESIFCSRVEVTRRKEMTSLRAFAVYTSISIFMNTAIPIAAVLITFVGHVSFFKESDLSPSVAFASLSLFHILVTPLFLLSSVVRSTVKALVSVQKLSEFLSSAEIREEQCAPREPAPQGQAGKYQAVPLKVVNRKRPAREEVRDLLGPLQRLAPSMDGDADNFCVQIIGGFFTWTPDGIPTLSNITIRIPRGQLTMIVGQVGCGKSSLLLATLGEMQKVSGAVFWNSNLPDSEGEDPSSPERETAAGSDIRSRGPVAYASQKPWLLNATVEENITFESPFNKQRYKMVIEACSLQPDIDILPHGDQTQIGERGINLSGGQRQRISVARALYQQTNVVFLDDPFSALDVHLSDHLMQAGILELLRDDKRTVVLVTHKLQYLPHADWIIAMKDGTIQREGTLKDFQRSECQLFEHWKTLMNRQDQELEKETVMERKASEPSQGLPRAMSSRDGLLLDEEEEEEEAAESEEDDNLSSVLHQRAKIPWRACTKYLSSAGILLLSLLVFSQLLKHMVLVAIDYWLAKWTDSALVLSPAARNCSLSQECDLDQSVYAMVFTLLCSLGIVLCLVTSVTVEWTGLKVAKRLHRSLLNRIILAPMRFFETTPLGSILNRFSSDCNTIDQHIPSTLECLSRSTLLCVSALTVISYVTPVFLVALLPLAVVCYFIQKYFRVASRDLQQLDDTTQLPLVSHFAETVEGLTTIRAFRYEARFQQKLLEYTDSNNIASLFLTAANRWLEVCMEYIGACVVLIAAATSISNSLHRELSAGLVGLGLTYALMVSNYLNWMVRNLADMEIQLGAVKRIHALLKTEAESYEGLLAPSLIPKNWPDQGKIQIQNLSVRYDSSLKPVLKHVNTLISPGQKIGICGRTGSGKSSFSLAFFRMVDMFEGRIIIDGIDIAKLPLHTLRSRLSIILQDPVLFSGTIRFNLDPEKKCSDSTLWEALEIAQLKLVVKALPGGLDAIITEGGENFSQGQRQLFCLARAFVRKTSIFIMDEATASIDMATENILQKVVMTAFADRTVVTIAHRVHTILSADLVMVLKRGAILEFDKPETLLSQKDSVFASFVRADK
Chain of Adrenergic α2A (P08913 whole entry): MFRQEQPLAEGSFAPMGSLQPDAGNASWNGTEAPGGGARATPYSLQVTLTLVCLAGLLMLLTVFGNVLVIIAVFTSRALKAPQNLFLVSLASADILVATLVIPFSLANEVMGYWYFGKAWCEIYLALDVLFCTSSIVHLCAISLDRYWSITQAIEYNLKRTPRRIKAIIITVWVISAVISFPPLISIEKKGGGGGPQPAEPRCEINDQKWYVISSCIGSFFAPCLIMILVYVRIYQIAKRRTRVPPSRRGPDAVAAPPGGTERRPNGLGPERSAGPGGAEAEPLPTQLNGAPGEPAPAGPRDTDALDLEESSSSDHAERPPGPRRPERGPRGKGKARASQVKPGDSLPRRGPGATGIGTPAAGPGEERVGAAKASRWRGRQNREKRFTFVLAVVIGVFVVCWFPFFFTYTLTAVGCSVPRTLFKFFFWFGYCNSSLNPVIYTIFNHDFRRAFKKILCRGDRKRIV
Chain of Adrenergic β2 (P07550 whole entry): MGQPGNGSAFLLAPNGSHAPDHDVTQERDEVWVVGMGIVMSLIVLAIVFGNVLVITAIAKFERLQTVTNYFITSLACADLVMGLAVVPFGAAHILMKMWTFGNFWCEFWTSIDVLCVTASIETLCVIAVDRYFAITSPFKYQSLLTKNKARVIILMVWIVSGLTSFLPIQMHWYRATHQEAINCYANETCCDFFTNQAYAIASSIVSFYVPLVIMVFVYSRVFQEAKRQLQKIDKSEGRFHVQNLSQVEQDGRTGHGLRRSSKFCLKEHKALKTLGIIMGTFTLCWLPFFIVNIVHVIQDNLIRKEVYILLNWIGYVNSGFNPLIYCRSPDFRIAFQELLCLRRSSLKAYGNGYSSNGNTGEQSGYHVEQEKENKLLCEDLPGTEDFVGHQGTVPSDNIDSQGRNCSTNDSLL

In the case of `Cc1c(-c2cccc(S(=O)(=O)N(C)C)c2)c2ncccc2n1C/C(F)=C/CN.Cl.Cl` [PXS-5153A], the “% inhibition” value (Adrenergic α2A) is reported as 97%, the “% inhibition” value (GABAA, Muscimol, Central) is reported as -7% and the IC50 (Recombinant mouse LOXL2) is reported as 0.021 µM. For the same molecule, the “pIC50 ± SD” value (Recombinant mouse LOXL2) was 7.7 ± 0.2, the “% inhibition” value (Adrenergic β1) was 3% and the “% inhibition” value (Adrenergic β2) was -5%. The “% inhibition” value [1] was 26%, the “% inhibition” value [2] was 80% and the “mature crosslink formation (PYD + DPD)” value [3] was “reduced”. The “reduction of HYP content” value ([3]; all dosing regimens) was greater than 30%, the “DHLNL formation” value ([3]; all groups with therapeutic treatment) was “significant reduction” and the “PYD” value ([3]; all groups, only high dose q.d. statistically significant) was “different degrees of reduction”. The “reduction of collagen accumulation (Picrosirius red)” value ([3]; both of the daily dosing groups) was “up to 51%”, the “DHLNL/HYP ratio increase” value ([3]; crosslink normalized relative to hydroxyproline content) was “reversed” and the “DPD crosslinks” value ([3]; high dose q.d. treatment) was “significantly reduced”. The “liver injury, ALT and AST” value ([3]; high dose q.d. treatment compared with the CCl4 treated animals) was “significantly dampened”, the “immature crosslink formation (DHLNL + HLNL)” value ([3]; therapeutic treatment, compared with the CCl4 treated animals) was “substantially reduced” and the “% inhibition” value (Imidazoline I2, Central) was 57%. For the same molecule, the “% inhibition” value (Potassium Channel [KATP]) was 8%.
